The record followed here is ChEMBL document CHEMBL4680225, “Design and development of ((4-methoxyphenyl)carbamoyl) (5-(5-nitrothiophen-2-yl)-1,3,4-thiadiazol-2-yl)amide analogues as Mycobacterium tuberculosis ketol-acid reductoisomerase inhibitors” (Eur J Med Chem, 2020).

The structures appear in SMILES notation. Converted amounts (≈) assume the structure as drawn.

The test system of the assay is Mycobacterium tuberculosis. The experiment in a line: Antitubercular activity against isoniazid-resistant Mycobacterium tuberculosis clinical isolate measured after 1 week by microplate alamar blue assay. The format is functional. The following applies: 168 h, time 1 weeks.
Consider `NNC(=O)c1ccncc1` [ISONIAZID], for which the MIC was 12.5 µM (≈ 1.71 µg/mL).
Then `COc1ccc(NC(=S)Nc2nnc(-c3ccc([N+](=O)[O-])s3)s2)cc1`, with 0.2 µM (≈ 0.0787 µg/mL).
Then `CO[C@H]1/C=C/O[C@@]2(C)Oc3c(C)c(O)c4c(O)c(c(/C=N/N5CCN(C)CC5)c(O)c4c3C2=O)NC(=O)/C(C)=C\C=C\[C@H](C)[C@H](O)[C@@H](C)[C@@H](O)[C@@H](C)[C@H](OC(C)=O)[C@@H]1C` [RIFAMPIN], with 0.5 µM (≈ 0.411 µg/mL); and `O=[N+]([O-])c1ccc(-c2nnc(NC(=S)Nc3ccc(Cl)cc3)s2)s1`, with 12.5 µM (≈ 4.97 µg/mL).
In the case of `CC(=O)c1ccc(S(=O)(=O)Nc2nnc(-c3ccc([N+](=O)[O-])o3)s2)cc1`, the MIC is 12.5 µM (≈ 4.93 µg/mL).
As for `O=[N+]([O-])c1ccc(-c2nnc(NC(=S)Nc3ccc(F)cc3)s2)o1`, the figure is 0.78 µM (≈ 0.285 µg/mL); as for `CC[C@@H](CO)NCCN[C@@H](CC)CO` [ETHAMBUTOL], 7.63 µM (≈ 1.56 µg/mL).
As for `COc1ccc(NC(=S)Nc2nnc(-c3ccc([N+](=O)[O-])o3)s2)cc1`, the figure is 7.81 µM (≈ 2.95 µg/mL).
